For experiment [1] the following is noted: reported in the literature; cited from earlier work.
The test system of experiment [2] is islets. As to conditions: reported in the literature; cited from earlier work.
The test system of experiment [3] is pancreatic islets. Briefly: Islet viability, Live/Dead assay. The note with it: day 7; glutamine 10 mM. Type of experiment: cell-based, C57BL/6 mice. Here is the method: (§1) All mice within this study were treated in accordance with the guidelines approved by the Institutional Animal Care and Use Committee (IACUC) at Stanford University. Animals were housed under conventional conditions having access to food and water ad libitum. Pancreatic islets were isolated from C57BL/6 mice (male, 6-8-week-old, Charles River Laboratories, USA), as previously described.^9 In brief, the common bile duct was cannulated with a 30G needle and the pancreas distended with 3 mL of cold collagenase solution (Fischer Scientific, USA). The pancreas was removed and islets isolated by digesting the pancreas at 37° C. for 10 min. The islets were purified using histopaque-density gradients. […]
After 7 days of incubation with PDG-MSNPs, the viability of islets was assessed using Live/Dead and 3-(4,5-Dimethylthiazol-2-yl)-2,5-diphenyltetrazolium bromide (MTT) assays. Islets were labeled using fluorescein diacetate (FDA; for live cells (green fluorescence), Thermo Fisher Scientific, USA) and propidium iodide (PI; for dead cells (red fluorescence), Thermo Fisher Scientific, USA) as the Live/Dead staining solution. […] A minimum of 8 islets per experimental group were analyzed using Image-J/FIJI to quantify live and dead fluorescence within islets and the percentage of live islet were presented.

Experiment [4] concerns diabetic mice transplanted with islets. The experiment is described as follows: Islet transplantation under kidney capsule of STZ diabetic mice, metabolic analysis. Type of experiment: in vivo, C57BL/6 mice.
Experiment [5] has as its system pancreatic islets. The experiment is described as follows: Islet function, GSIS assay (insulin secretion). Type of experiment: cell-based, C57BL/6 mice. The note with it: 7 days; glutamine 10 mM; 16.7 mM glucose. Here is the method:
as §1
Islets supplemented with PDG-MSNPs were cultured in a humidified incubator under normal conditions (37° C./5% CO2/20% O2). After 7 days of incubation with PDG-MSNPs, the ability of islets to secrete insulin was assessed by exposing them to low glucose (i.e. basal conditions) and high glucose (i.e. stimulated conditions) media (200 μL/well). […] The supernatants were collected at the end of incubation for both basal and stimulated condition and insulin levels were quantified using a mouse insulin ELISA kit (Mercodia Developing Diagnostics, USA). […]

The structures appear in SMILES notation.

`O=C(O)[C@@H]1CCCN1` [Proline]: the “Maintained function of various organs” value in experiment [1] is listed as “No”. Also, in experiment [2], the “Cyto-protective effects on islets” value is recorded as “No”, the Decreased inflammation entry is listed as “No”, the Enhanced islet function result was “Yes” and the Enhanced islet survival result is “No”.
Take `N=C(N)NCCC[C@H](N)C(=O)O` [Arginine]: the “Maintained function of various organs” value in experiment [1] is “No”. In addition, in experiment [2], the “Cyto-protective effects on islets” value was “No”, the Decreased inflammation entry was “No”, the Enhanced islet function entry was “Yes” and the Enhanced islet survival entry is “No”.
For the compound `CC[C@H](C)[C@H](N)C(=O)O` [Isoleucine], the “Maintained function of various organs” value in experiment [1] is recorded as “No”. Further, in experiment [2], the “Cyto-protective effects on islets” value was “No”, the Decreased inflammation result was “No”, the Enhanced islet function entry is listed as “Yes” and the Enhanced islet survival result was “No”.
With `NCCCC[C@H](N)C(=O)O` [Lysine], the “Maintained function of various organs” value in experiment [1] was “No”. Besides, in experiment [2], the “Cyto-protective effects on islets” value was “No”, the Decreased inflammation result is on record as “No”, the Enhanced islet function entry is “Yes” and the Enhanced islet survival result is “No”.
As to `CC(C)C[C@H](N)C(=O)O` [Leucine], in experiment [2], the “Cyto-protective effects on islets” value is on record as “Yes”, the Decreased inflammation result is “No”, the Enhanced islet function entry is listed as “Yes” and the Enhanced islet survival result was “No”.
`N[C@@H](CS)C(=O)O` [Cysteine]: the “Maintained function of various organs” value in experiment [1] was “No”. Moreover, in experiment [2], the “Cyto-protective effects on islets” value is “Yes”, the Decreased inflammation result was “No”, the Enhanced islet function entry is listed as “No” and the Enhanced islet survival entry is given as “No”.
With `N[C@@H](CCS)C(=O)O` [Homocysteine], the “Maintained function of various organs” value in experiment [1] is “No”. In experiment [2], the “Cyto-protective effects on islets” value was “No”, the Decreased inflammation result is reported as “No”, the Enhanced islet function result is recorded as “No” and the Enhanced islet survival entry is “No”.
For the compound `N[C@@H](Cc1c[nH]c2ccccc12)C(=O)O` [Tryptophan], the “Maintained function of various organs” value in experiment [1] was “No”. For the same compound, in experiment [2], the “Cyto-protective effects on islets” value is reported as “No”, the Decreased inflammation entry is reported as “No”, the Enhanced islet function result was “Yes” and the Enhanced islet survival entry is on record as “Yes”.
As to `CSCC[C@H](N)C(=O)O` [Methionine], the “Maintained function of various organs” value in experiment [1] is on record as “No”. In addition, in experiment [2], the “Cyto-protective effects on islets” value is on record as “No”, the Decreased inflammation result is given as “No”, the Enhanced islet function entry was “No” and the Enhanced islet survival result is reported as “No”.
`C[C@H](N)C(=O)O` [Alanine]: the “Maintained function of various organs” value in experiment [1] was “No”. Also, in experiment [2], the “Cyto-protective effects on islets” value is “No”, the Decreased inflammation result is “No”, the Enhanced islet function result is “Yes” and the Enhanced islet survival entry was “Yes”.
Take `NC(=O)CC[C@H](N)C(=O)O` [Glutamine, glutamine]: the “islet viability (Live/Dead)” value in experiment [3] was found to be 77.1±2.6%. Besides, in experiment [4] (day 30 post-transplantation), the “non-fasting blood glucose level (BGL)” value amounted to 337 ± 84 mg/dL. Also, the “AUC0-20 min of IPGTT” value in experiment [4] (fasting IPGTT) was found to be 26935 ± 1347 mg·min/dL. Moreover, the “IPGTT peak incremental value following glucose injection” value in experiment [4] (fasting IPGTT, glucose 2 g/kg i.p., peak at 30 min) turned out to be 238 ± 12 mg/dL. The compound further registered a body weight in experiment [4] (week 4) of 20.7 ± 0.9 g. Moreover, the “insulin secretion following stimulation with high glucose medium” value in experiment [5] stood at 8.1 ± 0.3 ng/mL. For the same compound, in experiment [2], the “Cyto-protective effects on islets” value is “Yes”, the Decreased inflammation entry is reported as “Yes”, the Enhanced islet function entry was “Yes” and the Enhanced islet survival entry is “Yes”.

The values are drawn from patent US12558334B2, “Controlled nutrient delivery to pancreatic islets using a novel mesoporous silica-based nanoparticle platform” (The Board of Trustees of the Leland Stanford Junior …, priority 2019, dated 2026).
